Results as given in PubChem BioAssay (NCI).
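Test compounds were applied to cells in 96-well plates for 48 hours at 5 doses. At the GI50, growth is halved. TGI denotes the concentration required for complete inhibition of growth.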

What was measured:
Assay in all cases: DTP human tumour cell line panel, 48 h
786-0 renal = tested on: 786-0 renal
A498 renal = tested on: A498 renal
A549 NSCLC = tested on: A549 NSCLC
ACHN renal = tested on: ACHN renal
BT-549 breast = tested on: BT-549 breast
CAKI-1 renal = tested on: CAKI-1 renal
COLO 205 colon = tested on: COLO 205 colon
DU-145 prostate = tested on: DU-145 prostate
EKVX NSCLC = tested on: EKVX NSCLC
HCC-2998 colon = tested on: HCC-2998 colon
HCT-116 colon = tested on: HCT-116 colon
HCT-15 colon = tested on: HCT-15 colon
HOP-92 NSCLC = tested on: HOP-92 NSCLC
HT29 colon = tested on: HT29 colon
IGROV1 ovarian = tested on: IGROV1 ovarian
K-562 leukemia = tested on: K-562 leukemia
KM12 colon = tested on: KM12 colon
M14 melanoma = tested on: M14 melanoma
MALME-3M melanoma = tested on: MALME-3M melanoma
MCF7 breast = tested on: MCF7 breast
MDA-MB-231 breast = tested on: MDA-MB-231 breast
MDA-MB-435 = tested on: MDA-MB-435
MDA-N = tested on: MDA-N
MOLT-4 leukemia = tested on: MOLT-4 leukemia
NCI-H226 lung = tested on: NCI-H226 lung
NCI-H23 lung = tested on: NCI-H23 lung
NCI-H460 lung = tested on: NCI-H460 lung
NCI-H522 lung = tested on: NCI-H522 lung
NCI/ADR-RES ovarian = tested on: NCI/ADR-RES ovarian
OVCAR-4 ovarian = tested on: OVCAR-4 ovarian
OVCAR-5 ovarian = tested on: OVCAR-5 ovarian
PC-3 prostate = tested on: PC-3 prostate
RPMI-8226 leukemia = tested on: RPMI-8226 leukemia
RXF 393 renal = tested on: RXF 393 renal
SF-268 CNS = tested on: SF-268 CNS
SF-295 CNS = tested on: SF-295 CNS
SK-MEL-2 melanoma = tested on: SK-MEL-2 melanoma
SK-MEL-28 melanoma = tested on: SK-MEL-28 melanoma
SK-MEL-5 melanoma = tested on: SK-MEL-5 melanoma
SK-OV-3 ovarian = tested on: SK-OV-3 ovarian
SN12C renal = tested on: SN12C renal
SNB-19 CNS = tested on: SNB-19 CNS
SNB-75 CNS = tested on: SNB-75 CNS
SW-620 colon = tested on: SW-620 colon
TK-10 renal = tested on: TK-10 renal
U251 CNS = tested on: U251 CNS
UACC-257 melanoma = tested on: UACC-257 melanoma
UACC-62 melanoma = tested on: UACC-62 melanoma
UO-31 renal = tested on: UO-31 renal
CCRF-CEM leukemia = tested on: CCRF-CEM leukemia
HL-60(TB) leukemia = tested on: HL-60(TB) leukemia
HOP-62 NSCLC = tested on: HOP-62 NSCLC
HS 578T breast = tested on: HS 578T breast
LOX IMVI melanoma = tested on: LOX IMVI melanoma
OVCAR-3 ovarian = tested on: OVCAR-3 ovarian
OVCAR-8 ovarian = tested on: OVCAR-8 ovarian
SF-539 CNS = tested on: SF-539 CNS
SR leukemia = tested on: SR leukemia
T-47D breast = tested on: T-47D breast

## Nn1c(CCCCCCCCc2nnc(COc3c(O)ccc4ccccc34)n2N)nnc1COc1c(O)ccc2ccccc12
786-0 renal
  TGI: > 100 µM
A498 renal
  TGI: > 100 µM
A549 NSCLC
  TGI: > 100 µM
ACHN renal
  TGI: > 100 µM
BT-549 breast
  TGI: > 100 µM
CAKI-1 renal
  TGI: > 100 µM
COLO 205 colon
  TGI: > 100 µM
DU-145 prostate
  TGI: > 100 µM
EKVX NSCLC
  TGI: > 100 µM
HCC-2998 colon
  TGI: > 100 µM
HCT-116 colon
  TGI: > 100 µM
HCT-15 colon
  TGI: > 100 µM
HOP-92 NSCLC
  TGI: > 100 µM
HT29 colon
  TGI: > 100 µM
IGROV1 ovarian
  TGI: > 100 µM
K-562 leukemia
  TGI: > 100 µM
KM12 colon
  TGI: > 100 µM
M14 melanoma
  TGI: > 100 µM
MALME-3M melanoma
  TGI: > 100 µM
MCF7 breast
  TGI: > 100 µM
MDA-MB-231 breast
  TGI: > 100 µM
MDA-MB-435
  TGI: > 100 µM
MDA-N
  TGI: > 100 µM
MOLT-4 leukemia
  TGI: > 100 µM
NCI-H226 lung
  TGI: > 100 µM
NCI-H23 lung
  TGI: > 100 µM
NCI-H460 lung
  TGI: > 100 µM
NCI-H522 lung
  TGI: > 100 µM
NCI/ADR-RES ovarian
  TGI: > 100 µM
OVCAR-4 ovarian
  TGI: > 100 µM
OVCAR-5 ovarian
  TGI: > 100 µM
PC-3 prostate
  TGI: > 100 µM
RPMI-8226 leukemia
  TGI: > 100 µM
RXF 393 renal
  TGI: > 100 µM
SF-268 CNS
  TGI: > 100 µM
SF-295 CNS
  TGI: > 100 µM
SK-MEL-2 melanoma
  TGI: > 100 µM
SK-MEL-28 melanoma
  TGI: > 100 µM
SK-MEL-5 melanoma
  TGI: > 100 µM
SK-OV-3 ovarian
  TGI: > 100 µM
SN12C renal
  TGI: > 100 µM
SNB-19 CNS
  TGI: > 100 µM
SNB-75 CNS
  TGI: > 100 µM
SW-620 colon
  TGI: > 100 µM
TK-10 renal
  TGI: > 100 µM
U251 CNS
  TGI: > 100 µM
UACC-257 melanoma
  TGI: > 100 µM
UACC-62 melanoma
  TGI: > 100 µM
UO-31 renal
  TGI: > 100 µM

## C[n+]1c(-c2ccccc2)cc2/c(=C\c3ccc([N+](=O)[O-])cc3)c3ccccc3n21
786-0 renal
  TGI: 18.9 µM
A498 renal
  TGI: > 100 µM
A549 NSCLC
  TGI: > 100 µM
ACHN renal
  TGI: > 38.5 µM
BT-549 breast
  TGI: 1.67 µM
CAKI-1 renal
  TGI: > 100 µM
CCRF-CEM leukemia
  TGI: 8.04 µM
COLO 205 colon
  TGI: > 100 µM
DU-145 prostate
  TGI: 35.3 µM
EKVX NSCLC
  TGI: 44.2 µM
HCC-2998 colon
  TGI: > 100 µM
HCT-116 colon
  TGI: 14 µM
HCT-15 colon
  TGI: > 100 µM
HL-60(TB) leukemia
  TGI: 3.07 µM
HOP-62 NSCLC
  TGI: 19.3 µM
HOP-92 NSCLC
  TGI: > 41.6 µM
HS 578T breast
  TGI: 4.04 µM
HT29 colon
  TGI: > 32.6 µM
IGROV1 ovarian
  TGI: 9.53 µM
K-562 leukemia
  TGI: > 100 µM
KM12 colon
  TGI: 17.8 µM
LOX IMVI melanoma
  TGI: 17.6 µM
M14 melanoma
  TGI: > 37.6 µM
MCF7 breast
  TGI: > 94.1 µM
MDA-MB-231 breast
  TGI: 16.1 µM
MDA-MB-435
  TGI: 14.4 µM
MDA-N
  TGI: 21.8 µM
MOLT-4 leukemia
  TGI: > 30.8 µM
NCI-H226 lung
  TGI: 25.4 µM
NCI-H23 lung
  TGI: 13.6 µM
NCI-H460 lung
  TGI: > 100 µM
NCI-H522 lung
  TGI: 2.8 µM
NCI/ADR-RES ovarian
  TGI: > 100 µM
OVCAR-3 ovarian
  TGI: 15.5 µM
OVCAR-4 ovarian
  TGI: > 100 µM
OVCAR-5 ovarian
  TGI: 54.2 µM
OVCAR-8 ovarian
  TGI: > 26 µM
PC-3 prostate
  TGI: 21.1 µM
RPMI-8226 leukemia
  TGI: > 100 µM
RXF 393 renal
  TGI: 19.5 µM
SF-268 CNS
  TGI: 29.1 µM
SF-295 CNS
  TGI: 21.4 µM
SF-539 CNS
  TGI: 34.7 µM
SK-MEL-2 melanoma
  TGI: 10.9 µM
SK-MEL-28 melanoma
  TGI: 24 µM
SK-MEL-5 melanoma
  TGI: > 19.7 µM
SK-OV-3 ovarian
  TGI: 25.4 µM
SN12C renal
  TGI: > 33.6 µM
SNB-19 CNS
  TGI: > 36.1 µM
SNB-75 CNS
  TGI: 15.6 µM
SR leukemia
  TGI: > 41.7 µM
SW-620 colon
  TGI: 29 µM
TK-10 renal
  TGI: > 100 µM
U251 CNS
  TGI: 19.8 µM
UACC-257 melanoma
  TGI: > 60.8 µM
UACC-62 melanoma
  TGI: > 73.6 µM
UO-31 renal
  TGI: 35.5 µM

## Nc1cc2cccc[n+]2c2cc(Cl)ccc12
786-0 renal
  GI50: 8.16 µM
A549 NSCLC
  GI50: 56.3 µM
ACHN renal
  GI50: 34.6 µM
BT-549 breast
  GI50: 7.24 µM
  TGI: 25.2 µM
CCRF-CEM leukemia
  GI50: 3.23 µM
  TGI: 35.3 µM
COLO 205 colon
  GI50: 11.8 µM
DU-145 prostate
  GI50: 30.7 µM
EKVX NSCLC
  GI50: 34 µM
HCC-2998 colon
  GI50: 16.8 µM
  TGI: 37.7 µM
HCT-116 colon
  GI50: 30.2 µM
HL-60(TB) leukemia
  GI50: 16.3 µM
HOP-92 NSCLC
  GI50: 22.7 µM
  TGI: 69.6 µM
HS 578T breast
  GI50: 16.6 µM
  TGI: 51.4 µM
HT29 colon
  GI50: 37.4 µM
IGROV1 ovarian
  GI50: 71.6 µM
K-562 leukemia
  GI50: 3.01 µM
  TGI: 22 µM
KM12 colon
  GI50: 7.89 µM
  TGI: 53.2 µM
M14 melanoma
  GI50: 19.3 µM
  TGI: 47.4 µM
MALME-3M melanoma
  GI50: 2380 nM
  TGI: 11.7 µM
MCF7 breast
  GI50: 17.9 µM
  TGI: 63 µM
MDA-MB-231 breast
  GI50: 17.7 µM
  TGI: 51 µM
MDA-MB-435
  GI50: 15.7 µM
  TGI: 48.7 µM
MDA-N
  GI50: 12.6 µM
  TGI: 38.8 µM
MOLT-4 leukemia
  GI50: 4.22 µM
NCI-H226 lung
  GI50: 13.5 µM
  TGI: 59.5 µM
NCI-H23 lung
  GI50: 13.2 µM
  TGI: 53.6 µM
NCI-H460 lung
  GI50: 18 µM
  TGI: 49.6 µM
NCI-H522 lung
  GI50: 11.8 µM
  TGI: 33 µM
OVCAR-4 ovarian
  GI50: 8.44 µM
  TGI: 38.9 µM
OVCAR-5 ovarian
  GI50: 25.7 µM
OVCAR-8 ovarian
  GI50: 16.8 µM
  TGI: 57.9 µM
RPMI-8226 leukemia
  GI50: 2860 nM
  TGI: 29.9 µM
RXF 393 renal
  GI50: 87.9 µM
SF-268 CNS
  GI50: 4.03 µM
  TGI: 21.7 µM
SF-295 CNS
  GI50: 23.1 µM
SF-539 CNS
  GI50: 14.6 µM
  TGI: 83.2 µM
SK-MEL-2 melanoma
  GI50: 66.4 nM
  TGI: 18.4 µM
SK-MEL-28 melanoma
  GI50: 14.9 µM
  TGI: 37.3 µM
SK-MEL-5 melanoma
  GI50: 10.4 µM
  TGI: 23.2 µM
SN12C renal
  GI50: 5.56 µM
  TGI: 35.4 µM
SNB-19 CNS
  GI50: 9.23 µM
  TGI: 55.5 µM
SNB-75 CNS
  GI50: 21.5 µM
  TGI: 62.7 µM
SR leukemia
  GI50: 2330 nM
  TGI: 16.2 µM
SW-620 colon
  GI50: 26.2 µM
T-47D breast
  GI50: 6.83 µM
TK-10 renal
  GI50: 59.7 µM
U251 CNS
  GI50: 4.56 µM
  TGI: 25.4 µM
UACC-257 melanoma
  GI50: 3.75 µM
  TGI: 20.2 µM
UACC-62 melanoma
  GI50: 18.7 µM
  TGI: 45.9 µM
UO-31 renal
  GI50: 43.6 µM
